Assay results reported in PubChem BioAssay AID248 (DTP/NCI, 2004).
Where “and” joins values, the source holds several entries; their conditions need not be identical. Equal entries are not always repeated. Inconclusive results and toxic doses are left out. Rule as the data show it: active = T/C of 150% or more; inactive = T/C below 125%.

Test system: L1210 leukemia ip in BDF1 mice, survival T/C
Experiment: NCI In Vivo Anticancer Drug Screen. Data for tumor model L1210 Leukemia (intraperitoneal) in B6D2F1 (BDF1) mice
Conditions: endpoint: mean survival time, higher = longer survival
How it was run: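 Transplantable tumor model; survival measured in treated vs vehicle control mice. Value = treated/control.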

[1] = dose: 100.0 mg/kg/injection, schedule: Q01DX001 (ip), vehicle: saline
[2] = dose: 200.0 mg/kg/injection, schedule: Q01DX001 (ip), vehicle: saline
[3] = dose: 400.0 mg/kg/injection, schedule: Q01DX001 (ip), vehicle: saline
[4] = dose: 100.0 mg/kg/injection, schedule: Q01DX009 (ip), vehicle: saline with Tween-80
[5] = dose: 200.0 mg/kg/injection, schedule: Q01DX009 (ip), vehicle: saline with Tween-80
[6] = dose: 100.0 mg/kg/injection, schedule: Q04DX003 (ip), vehicle: Klucel (hydroxypropylcellulose) (HPC)
[7] = dose: 200.0 mg/kg/injection, schedule: Q04DX003 (ip), vehicle: Klucel (hydroxypropylcellulose) (HPC)
[8] = dose: 400.0 mg/kg/injection, schedule: Q04DX003 (ip), vehicle: Klucel (hydroxypropylcellulose) (HPC)
[9] = dose: 100.0 mg/kg/injection, schedule: Q01DX009 (ip), vehicle: Klucel (hydroxypropylcellulose) (HPC)
[10] = dose: 100.0 mg/kg/injection, schedule: Q04DX003 (ip), vehicle: saline with Tween-80
[11] = dose: 200.0 mg/kg/injection, schedule: Q04DX003 (ip), vehicle: saline with Tween-80
[12] = dose: 400.0 mg/kg/injection, schedule: Q04DX003 (ip), vehicle: saline with Tween-80
[13] = dose: 200.0 mg/kg/injection, schedule: Q01DX009 (ip), vehicle: Klucel (hydroxypropylcellulose) (HPC)
[14] = dose: 400.0 mg/kg/injection, schedule: Q01DX009 (ip), vehicle: Klucel (hydroxypropylcellulose) (HPC)
[15] = dose: 50.0 mg/kg/injection, schedule: Q04DX003 (ip), vehicle: saline
[16] = dose: 100.0 mg/kg/injection, schedule: Q04DX002 (ip), vehicle: Klucel (hydroxypropylcellulose) (HPC)
[17] = dose: 200.0 mg/kg/injection, schedule: Q04DX002 (ip), vehicle: Klucel (hydroxypropylcellulose) (HPC)
[18] = dose: 400.0 mg/kg/injection, schedule: Q04DX002 (ip), vehicle: Klucel (hydroxypropylcellulose) (HPC)

Measured: T/C

CCC(Oc1ccccc1OC)C(=O)O (centres undefined)
inactive: dose: 100.0 mg/kg/injection, schedule: Q01DX001 (ip), vehicle: Klucel (hydroxypropylcellulose) (HPC) 105 % of control | dose: 200.0 mg/kg/injection, schedule: Q01DX001 (ip), vehicle: Klucel (hydroxypropylcellulose) (HPC) 103 % of control | dose: 400.0 mg/kg/injection, schedule: Q01DX001 (ip), vehicle: Klucel (hydroxypropylcellulose) (HPC) 103 % of control

O=S(=O)(Cc1ccccc1)/C(=C\c1ccccc1)c1ccccc1
inactive: dose: 50.0 mg/kg/injection, schedule: Q01DX001 (ip), vehicle: saline 105 % of control | [1] 105 % of control | [2] 105 % of control | [3] 103 % of control

COc1cc(C2=C3C(=O)OCC3Cc3ccccc32)ccc1OCc1ccccc1 (centres undefined)
inactive: [1] 97 % of control | [2] 95 % of control | [3] 98 % of control

C[n+]1ccc(/C=C/c2ccc(O)c3ccccc23)cc1
inactive: dose: 75.0 mg/kg/injection, schedule: Q01DX001 (ip), vehicle: saline 100 % of control | dose: 150.0 mg/kg/injection, schedule: Q01DX001 (ip), vehicle: saline 101 % of control

N#CCC(=O)N1CCc2ccccc2C1
inactive: [4] 97 % of control | dose: 100.0 mg/kg/injection, schedule: Q04DX002 (ip), vehicle: saline with Tween-80 94 % of control | [5] 97 % of control | dose: 200.0 mg/kg/injection, schedule: Q04DX002 (ip), vehicle: saline with Tween-80 105 % of control | dose: 400.0 mg/kg/injection, schedule: Q04DX002 (ip), vehicle: saline with Tween-80 101 % of control

Cc1csc2nc(-c3ccccc3)nc(Cl)c12
inactive: dose: 100.0 mg/kg/injection, schedule: Q04DX003 (ip), vehicle: saline sonified 97 % of control | dose: 200.0 mg/kg/injection, schedule: Q04DX003 (ip), vehicle: saline sonified 93 % of control | dose: 400.0 mg/kg/injection, schedule: Q04DX003 (ip), vehicle: saline sonified 95 % of control

CN(C)C=Nc1ccc(C#N)cc1
inactive: dose: 100.0 mg/kg/injection, schedule: Q04DX002 (ip), vehicle: saline 98 % of control | dose: 200.0 mg/kg/injection, schedule: Q04DX002 (ip), vehicle: saline 91 % of control | dose: 400.0 mg/kg/injection, schedule: Q04DX002 (ip), vehicle: saline 91 % of control

C[N+]1(C)CCOCC1
inactive: dose: 10.0 mg/kg/injection, schedule: Q01DX001 (ip), vehicle: saline 99 % of control | dose: 20.0 mg/kg/injection, schedule: Q01DX001 (ip), vehicle: saline 100 % of control | dose: 40.0 mg/kg/injection, schedule: Q01DX001 (ip), vehicle: saline 96 % of control

CCNC(=O)c1c2ccccc2nc2c1c(C)c(C)c1ccccc12
inactive: [6] 108 % of control | [7] 112 % of control | [8] 106 % of control

CCN(CC)CCNc1ncnc2c1cnn2-c1ccc(Cl)cc1
inactive: dose: 25.0 mg/kg/injection, schedule: Q01DX009 (ip), vehicle: Klucel (hydroxypropylcellulose) (HPC) 95 % of control | dose: 50.0 mg/kg/injection, schedule: Q01DX009 (ip), vehicle: Klucel (hydroxypropylcellulose) (HPC) 95 % of control | [9] 92 % of control | [4] 101 % of control | [6] 95 % of control | [10] 103 % of control | dose: 150.0 mg/kg/injection, schedule: Q01DX009 (ip), vehicle: Klucel (hydroxypropylcellulose) (HPC) 101 % of control | [5] 95 % of control | [7] 95 % of control | [11] 94 % of control | dose: 225.0 mg/kg/injection, schedule: Q01DX009 (ip), vehicle: Klucel (hydroxypropylcellulose) (HPC) 93 % of control | dose: 335.0 mg/kg/injection, schedule: Q01DX009 (ip), vehicle: Klucel (hydroxypropylcellulose) (HPC) 87 % of control | [8] 95 % of control | [12] 103 % of control

CCOC(=O)CCC(C)(C#N)c1ccccc1 (centres undefined)
inactive: [4] 104 % of control | [10] 108 % of control | [5] 98 % of control | [11] 99 % of control | dose: 400.0 mg/kg/injection, schedule: Q01DX009 (ip), vehicle: saline with Tween-80 97 % of control | [12] 106 % of control

O=C1c2ccccc2C(=O)N1CC(O)COc1ccc(Cl)cc1 (centres undefined)
inactive: [6] 92 % of control | [7] 92 % of control | [8] 91 % of control

C1=C(c2ccccc2)CCCC1
inactive: [9] 92 % of control | [6] 106 % of control | [13] 95 % of control | [7] 100 % of control | [14] 109 % of control | [8] 92 % of control

COC(=O)c1ccc(NCC(=N)N)cc1
inactive: [1] 95 % of control | [2] 107 % of control

CCOCCC(=O)CC(=O)OC
inactive: dose: 50.0 mg/kg/injection, schedule: Q01DX009 (ip), vehicle: saline with Tween-80 96 % of control | [4] 100 % of control | [5] 96 % of control

CNC1(c2ccccc2)C(=O)CC2CCC1C2 (centres undefined)
inactive: [15] 99 % of control | [1] 105 % of control | dose: 100.0 mg/kg/injection, schedule: Q04DX003 (ip), vehicle: saline 100 % of control | [2] 107 % of control

CCOC(=O)c1c(-c2cc(OC)c(OC)c(OC)c2)csc1N
inactive: dose: 50.0 mg/kg/injection, schedule: Q04DX003 (ip), vehicle: saline with Tween-80 95 % of control | [10] 97 % of control | [11] 87 % of control | [12] 94 % of control

CCOC(=O)C(C)(C)CC(=O)COC
inactive: dose: 100.0 mg/kg/injection, schedule: Q01DX001 (ip), vehicle: acetone 98 % of control | dose: 100.0 mg/kg/injection, schedule: Q01DX009 (ip), vehicle: acetone 95 % of control | dose: 200.0 mg/kg/injection, schedule: Q01DX001 (ip), vehicle: acetone 100 % of control | dose: 200.0 mg/kg/injection, schedule: Q01DX009 (ip), vehicle: acetone 90 % of control | dose: 400.0 mg/kg/injection, schedule: Q01DX001 (ip), vehicle: acetone 94 % of control | dose: 400.0 mg/kg/injection, schedule: Q01DX009 (ip), vehicle: acetone 105 % of control

O=C(Nc1ccc(Br)cc1)c1cc(Br)ccc1O
inactive: dose: 50.0 mg/kg/injection, schedule: Q01DX001 (ip), vehicle: carboxymethylcellulose (CMC) 98 % of control | dose: 100.0 mg/kg/injection, schedule: Q01DX001 (ip), vehicle: carboxymethylcellulose (CMC) 102 % of control | [16] 103 % of control | dose: 200.0 mg/kg/injection, schedule: Q01DX001 (ip), vehicle: carboxymethylcellulose (CMC) 89 % of control | [17] 92 % of control | dose: 400.0 mg/kg/injection, schedule: Q01DX001 (ip), vehicle: carboxymethylcellulose (CMC) 94 % of control | [18] 95 % of control

CCCCCCCCCCCCCCCC(=O)OC
inactive: [9] 105 % of control | [6] 98 % of control | [13] 101 % of control | [7] 93 % of control | [14] 97 % of control | [8] 98 % of control

Nc1nc(Cl)nc2c1ncn2Cc1ccccc1
inactive: dose: 9.5 mg/kg/injection, schedule: Q01DX001 (ip), vehicle: other 101 % of control | dose: 19.0 mg/kg/injection, schedule: Q01DX001 (ip), vehicle: other 105 % of control | dose: 38.0 mg/kg/injection, schedule: Q01DX001 (ip), vehicle: other 101 % of control | dose: 75.0 mg/kg/injection, schedule: Q01DX001 (ip), vehicle: other 119 % of control

COC(=O)C(=O)CC(=O)c1cccc(C)c1
inactive: [16] 100 % of control | [17] 103 % of control | [18] 92 % of control

C[N+](C)(Cc1ccc(Cl)cc1)C1c2ccccc2-c2ccccc21
inactive: dose: 6.0 mg/kg/injection, schedule: Q04DX003 (ip), vehicle: saline 93 % of control | dose: 12.0 mg/kg/injection, schedule: Q04DX003 (ip), vehicle: saline 102 % of control | dose: 12.5 mg/kg/injection, schedule: Q01DX009 (ip), vehicle: saline 106 % of control | dose: 25.0 mg/kg/injection, schedule: Q01DX009 (ip), vehicle: saline 101 % of control | dose: 25.0 mg/kg/injection, schedule: Q04DX003 (ip), vehicle: saline 94 % of control and 91 % of control | dose: 50.0 mg/kg/injection, schedule: Q01DX009 (ip), vehicle: saline 98 % of control | [15] 87 % of control
